Experimental data reported in patent publication US5112804A, “Pharmaceutical composition and method of intranasal administration” (Temple University of the Commonwealth System of Higher …, priority 1989, dated 1992).

Tested on: blood glucose level
Experiment: Insulin absorption animal study, continuous blood glucose monitoring after nasal administration
Type: in vivo, dog
Conditions: dogs
From the text: The hypoglycemic effect of the above preparations was confirmed in animal glucose monitoring studies utilizing continuous glucose monitoring with the device described in J. Clin. Endocrinol. Metab. 53: 1145 (1984). The device consists of a system for nonthrombogenic blood withdrawal coupled to a system for blood glucose measurement. The blood withdrawal system includes a disposable sterile intravenous needle and catheter connected to a peristaltic pump. The inside wall of the catheter is coated with tridodecyclmethylammonium chloride complexed with heparin to provide a nonthrombogenic surface. Blood is continuously withdrawn at a rate of 12 ml/hr from the experimental animal via the nonthrombogenic catheter. The blood is diluted in a Plexiglass mixing chamber with six volumes of phosphate buffer solution (0.015 M; pH 7.4) containing 10 IU/ml heparin and then moved into the device's sensory chamber. […]
Six preconditioned female mongrel hound dogs treated for worms, weighing 19-20 kg, were fasted overnight and anesthetized in the morning with intravenous "NEMBUTAL" sodium pentobarbital (250 mg initial dose, 25 mg every 30 minutes for maintenance). […] Blood glucose level was continuously monitored. The resulting decrease in blood glucose level for the insulin dosages in Table 1 are recorded in FIGS. 1 to 12.

## CC1(C)[C@@H](O)CC[C@]2(C)[C@H]3C(=O)C=C4[C@@H]5C[C@@](C)(C(=O)O)CC[C@]5(C)CC[C@@]4(C)[C@]3(C)CC[C@@H]12 [glycyrrhetinic acid]
  enhancing absorption of insulin across the nasal membrane: effective
